Reference: patent US9598463B2, “Mucin hypersecretion inhibitors and methods of use” (BIOMARCK PHARMACEUTICALS, LTD., priority 2005, dated 2017)
Marks after values point to notes of the source that are not given here. Where a SMILES comes first, the peptide text is derived from it. The star is where a group is joined. Myristoyl = CCCCCCCCCCCCCC(=O)*

Experiments:
nasal mucus secretion = assay: Mucus secretion in upper respiratory tract of primates (nasal lavage, ELISA); type: in vivo; conditions: rhesus monkeys; 2.0 mL of 140 μM solution in right nostril; nasal lavage 1 hour after treatment
Text: The purpose of the experiment was to determine the ability of MANS peptide to inhibit mucus secretion in the upper respiratory tract of healthy adult rhesus monkeys. The test used is a standard method for evaluation of nasal secretory activity, and non-human primates typically provide a good correlation to activity in man.
A total of 17 healthy young adult male rhesus monkeys without any prior history of rhinitis were used for the experiment. None of the monkeys had rhinitis before or after the study. The nasal mucus secretion of each monkey was measured in its left nostril prior to any treatment. This value is considered 100% mucus secretion. The monkeys were then randomly divided into the following 4 groups: • Group 1: Normal saline, control (n=3); • Group 2: Sodium acetate, solvent control (n=4); • Group 3: RNS peptide, negative control (n=5); and • Group 4: MANS peptide, test peptide (n=5).
Saline was placed in the left nostril of all 17 animals prior to any treatment. The right nostrils were treated with 2.0 mL of either saline, sodium acetate, RNS peptide or the MANS peptide. Thus, each animal had its own internal control. Nasal lavage was performed on both nostrils of each animal 1 hour after the treatment with the test articles. All lavages were immediately frozen at −80° C. and analyzed for mucus content by ELISA. […]

HBE1 cells = assay: PMA-induced mucin hypersecretion in human bronchial epithelial cells (air/liquid interface, MUC5A ELISA); type: cell-based; conditions: pretreatment with 25 μM peptide, then 0.5 μM PMA
Method: HBE1 is a papilloma virus-transformed human bronchial epithelial cell line capable of mucin secretion when cultured in air/liquid interface. HBE1 cells were cultured in the air/liquid interface as described previously (Li et al, J. Biol. Chem., volume 276, pp 40982-40990, 2001). Briefly, HBE1 cells were cultured in air/liquid interface by seeding an appropriate number of cells in 12-well Transwell clear culture inserts (Costar, Cambridge, Mass.) that were thinly coated with rat tail collagen, type I (Collaborative Biomedical, Bedford, Mass.). Cells were initially cultured submerged in medium in a humidified 95% air, 5% CO2 environment for 5-7 days until nearly confluent. At that time, the air/liquid interface was created by removing the apical medium and feeding cells basalaterally. Medium was renewed daily thereafter. Cells were cultured for an additional 14 days to allow full differentiation. The accumulated mucin at the apical surface of the cells was removed by washing with phosphate-buffered saline, pH 7.2. To collect the baseline mucin secretion, cells were incubated for 30 min with medium alone and secreted mucin in the apical medium was collected, and quantitated by ELISA. To determine the mucin hypersecretion induced by a mucin secretagogue, cells were exposed to medium containing 0.5 μM phorbol myristate acetate, (PMA) for 30 min. and mucin was collected and quantitated by ELISA. […] Six wells were used for each test peptides and for each control. Secreted mucin in the apical medium was collected and quantitated by sandwich ELISA method using alkaline phosphatase-conjugated mucin (MUC5A) specific antibody (Zymed Laboratories, San Francisco, Calif.).

[1] = test system: methacholine-induced mucin hypersecretion; assay: Methacholine-induced mucin hypersecretion in ovalbumin-sensitized mouse model of asthma, BAL mucin ELISA (BP2 mice); type: in vivo
Text: (§1) Experiments were designed to test whether or not the MANS peptide and other test peptides related thereto inhibit hypersecretion of mucin in murine airway in vivo. The ovalbumin-sensitized mouse model of allergic inflammation and asthma used in these studies was as described by Singer et al. (2004), supra. As a negative control, a control peptide containing an N-terminal myristoyl group and the same amino acids as MANS peptide but arranged in random order (i.e., the random N-terminal sequence, RNS, myristoyl-peptide 232) was tested alongside the proposed active peptides. BP2 mice, aged 6-8 wks, were immunized subcutaneously twice at weekly intervals with 1 μg of ovalbumin. After 14 days of sensitization, the animals were exposed to aerosolized ovalbumin, which causes a pronounced goblet cell hyperplasia after 72 hours. At the 72 hr time point, the secretagogue, methacholine ([…]) was delivered using a Buxco system nebulizer providing a fine aerosol for 90 seconds. Fifteen min prior to the secretagogue challenge, 50 μL of the test peptide, at 3 different concentrations (10 μM, 100 μM, or 140 μM), was administered by intratracheal route. The RNS peptide was tested at the highest dose level only (50 μL of 140 μM solution). […] Each experiment was carried out in 6 mice per point, and each set of experiments was repeated 3 times. To test strain-to-strain variations, the above experiment was repeated in Balb/C mice under similar protocol. Both stimulated and unstimulated mucin secretion, in mice treated with […] sodium acetate (data not shown), were identical to saline control. Following the methacholine challenge, the animals were sacrificed and bronchoalveolar lavage (BAL) performed on 6 animals per group for analysis of secreted mucin.
(§2) Mice were sacrificed by cervical dislocation, followed by rapid exposure of the trachea and insertion of a cannula through a small incision. Bronchoalveolar lavage (BAL) fluid was collected with 0.5 ml followed by 3×1 ml PBS containing PMSF (5 mM), EDTA (5 mM), and DTT (5 mM). BAL fluid was separated into cell-free and cell fractions via brief centrifugation prior to any analyses being performed. The cell-free supernatants were analyzed for the presence of mucin via an ELISA method using anti-mucin antibodies shown to react with mouse mucin. Specifically, a mouse anti-MUC5AC antibody that recognizes the carbohydrate portion of secreted mucin was used in these assays. Data generated from each BAL sample were normalized to total protein as determined by Bradford assay. Mucin content was expressed as the value obtained with the anti-mucin antibody minus that obtained with the non-immune control antibody. All ELISA data were statistically examined using a one-way ANOVA.

[2] = test system: methacholine-induced mucin hypersecretion; assay: Duration of action of test peptides in a murine model of asthma; type: in vivo; conditions: Balb/C mice
Text: as §1, §2
Experiments were designed to determine the duration of action of test peptides in a murine model of asthma. As described in Method 1A, Balb/C mice were immunized with ovalbumin. After 14 days, the animals were challenged with aerosolized ovalbumin. After 72 hours the secretagogue, methacholine was delivered by aerosolization. The test peptides ([…] of 100 µM solution) were administered by intratracheal route 30 min, 60 min, or 120 min prior to methacholine challenge. The animals were sacrificed and BAL performed for analysis of secreted mucin The results of this experiment are given in Table VI.

[3] = test system: methacholine-induced mucin hypersecretion; assay: Methacholine-induced mucin hypersecretion in ovalbumin-sensitized mouse model of asthma, BAL mucin ELISA (Balb/C mice); type: in vivo; conditions: for Mucin Secretion % control: peptides at 100 μM; for Mucin Secretion % of control: Table IV, peptide 100 μM
How it was run: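 BP2 or Balb/C mice immunized s.c. twice weekly with 1 μg ovalbumin, aerosol ovalbumin challenge after 14 days, then aerosolized methacholine 72 h later. Anti-MUC5AC ELISA on cell-free BAL, minus non-immune antibody signal, normalized to Bradford protein; 6 mice per group.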

[4] = Solubility in sodium acetate, pH 7; type: physicochemical; conditions: 120 min sodium acetate, pH 7 (so in the source)
[5] = Qualitative solubility of test peptides in 0.5 N saline; type: physicochemical; conditions: pH 6.5, 20° C. (table title)
How it was run: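 Weighed peptide (1 to 5 mg) titrated with 25 μL aliquots of 0.5 N saline, pH 6.5, at 25° C until dissolution judged visually. Solubility calculated from volume needed; complete dissolution in first aliquot reported as greater than, non-dissolution as less than, the calculated value.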

[6] = peptide intratracheal 30 min prior to methacholine challenge
[7] = peptide intratracheal 60 min prior to methacholine challenge
[8] = peptide intratracheal 120 min prior to methacholine challenge
[9] = Table II, 50 μL intratracheal 15 min before methacholine

SMILES: CCCCCCCCCCCCCC(=O)NCC(=O)N[C@@H](C)C(=O)N[C@@H](CCC(N)=O)C(=O)N[C@@H](Cc1ccccc1)C(=O)N[C@@H](CO)C(=O)N[C@@H](CCCCN)C(=O)N[C@H](C(=O)N[C@@H](C)C(=O)N[C@@H](C)C(=O)N[C@@H](CCCCN)C(=O)NCC(=O)N[C@@H](CCC(=O)O)C(=O)N[C@@H](C)C(=O)N[C@@H](C)C(=O)N[C@@H](C)C(=O)N[C@@H](CCC(=O)O)C(=O)N[C@@H](CCCNC(=N)N)C(=O)N1CCC[C@H]1C(=O)NCC(=O)N[C@@H](CCC(=O)O)C(=O)N[C@@H](C)C(=O)N[C@@H](C)C(=O)N[C@H](C(=O)N[C@@H](C)C(=O)O)C(C)C)[C@@H](C)O [myr-peptide 1, reference compound] (Myristoyl-GAQFSKTAAKGEAAAERPGEAAVA-OH)
- Inhibition of mucus secretion (nasal mucus secretion): ~75%
- Block of PMA-induced increase in mucin secretion (HBE1 cells): 100%
- Mucin Secretion % of control ([1]; peptide 10 μM): 35 % of Control
- Mucin Secretion % of control ([1]; peptide 100 μM): 12 % of Control
- Mucin Secretion % of control ([1]; peptide 140 μM): 8 % of Control
- Duration of action, mucin secretion (% of Control) [2, 6]: 7 % of Control
- Duration of action, mucin secretion (% of Control) [2, 7]: 44 % of Control
- Duration of action, mucin secretion (% of Control) [2, 8]: 50 % of Control
- Mucin Secretion % control [3, 9]: 33.8 % control
- Mucin Secretion % control ([3]; Table III): 40 % control
- Mucin Secretion % of control [3]: 29** % of control
- Solubility in sodium acetate [4]: freely soluble
- solubility [5]: < 5000 µg/mL

SMILES: CCCCCCCCCCCCCC(=O)NCC(=O)N[C@H](C(=O)N[C@@H](C)C(=O)N1CCC[C@H]1C(=O)N[C@@H](C)C(=O)N[C@@H](C)C(=O)N[C@@H](CCC(=O)O)C(=O)NCC(=O)N[C@@H](C)C(=O)NCC(=O)N[C@@H](C)C(=O)N[C@@H](CCC(=O)O)C(=O)N[C@H](C(=O)N[C@@H](CCCCN)C(=O)N[C@@H](CCCNC(=N)N)C(=O)N[C@@H](C)C(=O)N[C@@H](CO)C(=O)N[C@@H](C)C(=O)N[C@@H](CCC(=O)O)C(=O)N[C@@H](C)C(=O)N[C@@H](CCCCN)C(=O)N[C@@H](CCC(N)=O)C(=O)N[C@@H](C)C(=O)N[C@@H](Cc1ccccc1)C(=O)O)C(C)C)[C@@H](C)O [myr-peptide 232, reference compound] (Myristoyl-GTAPAAEGAGAEVKRASAEAKQAF-OH)
- Inhibition of mucus secretion (nasal mucus secretion): did not have any effect
- Mucin Secretion % of control ([1]; peptide 100 μM): 100 % of Control
- Mucin Secretion % of control ([1]; peptide 140 μM): 100 % of Control
- Duration of action, mucin secretion (% of Control) [2, 6]: 100 % of Control
- Duration of action, mucin secretion (% of Control) [2, 7]: 100 % of Control
- Duration of action, mucin secretion (% of Control) [2, 8]: 100 % of Control
- Mucin Secretion % control [3, 9]: 96 % control
- Mucin Secretion % control ([3]; Table III): 81** % control
- Mucin Secretion % of control [3]: 108 % of control
- Solubility in sodium acetate [4]: freely soluble
- solubility [5]: > 15000 µg/mL
